Assay results: patent US10188634B2, “3-(3H-imidazo[4,5-C]pyridin-2-yl)-1 H-pyrazolo[4,3-B]pyridines and therapeutic uses thereof” (Samumed, LLC, priority 2015, dated 2019)

How the values were obtained:
[1] = tested on: Wnt activity (Sp5-Luc reporter, human Sp5 promoter with eight TCF/LEF binding sites) in SW480 colon carcinoma cells; experiment: Screening assay for Wnt activity: Sp5-Luc reporter gene assay in SW480 cells; format: cell-based; conditions: for inhibition at 10 µM: read-out: percent inhibition at 10 μM (given for EC50 of >10 μM); for EC50: 10-point dose-response starting from 10 μM, overnight incubation
How it was run: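 SW480 cells stably carrying Sp5-Luc reporter (eight TCF/LEF sites) plated at 4,000/well in 1% FBS medium with compound (10-point 1:3 series from 10 μM, 0.1% DMSO) overnight at 37 °C. BrightGlo luminescence normalized to DMSO; EC50 by four-parameter fit, else % inhibition at 10 μM.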

[2] = tested on: SW480 colon cancer cells; experiment: Cell viability assay (CellTiter-Blue) in SW480 colon cancer cells; format: cell-based; conditions: Homo sapiens, 96 h; for inhibition at 10 µM: four days, CellTiter-Blue, read-out: percent inhibition at 10 μM (given for EC50 of >10 μM); for EC50: four days incubation, CellTiter-Blue cell viability
How it was run: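 About 2×10^3 SW480 colon cancer cells per well were exposed to compound (8-point 1:3 dilutions, 10 μM to 0.004 μM) for four days at 37 °C. Viability was read by CellTiter-Blue resazurin reduction (~3 h, Ex 560/Em 590). EC50 from nonlinear regression; above 10 μM, % inhibition at 10 μM is reported.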

SMILES | EC50 [1] [µM] | EC50 [2] [µM] | inhibition at 10 µM [1] [%] | inhibition at 10 µM [2] [%]
CN(C)CCOc1cncc(-c2ccc3[nH]nc(-c4nc5c(-c6cccs6)cncc5[nH]4)c3n2)c1 [Compound 663, N,N-Dimethyl-2-((5-(3-(7-(thiophen-2-yl)-3H-imidazo[4,5-c]pyridin-2-yl)-1H-pyrazolo[4,3-b]pyridin-5-yl)pyridin-3-yl)oxy)ethan-1-amine] | > 10 | > 10 | 46.7 | 15.5
c1ccc(CNCc2cncc(-c3ccc4[nH]nc(-c5nc6c(-c7cccnc7)cncc6[nH]5)c4n3)c2)cc1 [Compound 108, N-Benzyl-1-(5-(3-(7-(pyridin-3-yl)-3H-imidazo[4,5-c]pyridin-2-yl)-1H-pyrazolo[4,3-b]pyridin-5-yl)pyridin-3-yl)methanamine] | > 10 | > 10 | 5.3 | 0
c1cc(-c2ccc3[nH]nc(-c4nc5c(-c6ccncc6)cncc5[nH]4)c3n2)ccn1 [Compound 130, 5-(pyridin-4-yl)-3-(7-(pyridin-4-yl)-3H-imidazo[4,5-c]pyridin-2-yl)-1H-pyrazolo[4,3-b]pyridine] | > 10 | > 10 | 9.8 | 0
CN1CCN(c2cncc3[nH]c(-c4n[nH]c5ccc(-c6cncc(NC(=O)C7CCCC7)c6)nc45)nc23)CC1 [Compound 246, N-(5-(3-(7-(4-Methylpiperazin-1-yl)-3H-imidazo[4,5-c]pyridin-2-yl)-1H-pyrazolo[4,3-b]pyridin-5-yl)pyridin-3-yl)cyclopentanecarboxamide] | > 10 | > 10 | 3.9 | 1
CS(=O)(=O)NCc1cc(F)cc(-c2cncc3[nH]c(-c4n[nH]c5ccc(-c6cncnc6)nc45)nc23)c1 [Compound 475, N-(3-Fluoro-5-(2-(5-(pyrimidin-5-yl)-1H-pyrazolo[4,3-b]pyridin-3-yl)-3H-imidazo[4,5-c]pyridin-7-yl)benzyl)methanesulfonamide] | > 10 | > 10 | 31.4 | 0.9
O=C(Nc1cncc(-c2ccc3[nH]nc(-c4nc5c(-c6ccccn6)cncc5[nH]4)c3n2)c1)c1ccccc1 [Compound 151, N-(5-(3-(7-(Pyridin-2-yl)-3H-imidazo[4,5-c]pyridin-2-yl)-1H-pyrazolo[4,3-b]pyridin-5-yl)pyridin-3-yl)benzamide] | > 10 | > 10 | 23.9 | 16.9
CS(=O)(=O)NCc1cc(F)cc(-c2cncc3[nH]c(-c4n[nH]c5ccc(-c6cncc(CNCc7ccccc7)c6)nc45)nc23)c1 [Compound 472, N-(3-(2-(5-(5-((Benzylamino)methyl)pyridin-3-yl)-1H-pyrazolo[4,3-b]pyridin-3-yl)-3H-imidazo[4,5-c]pyridin-7-yl)-5-fluorobenzyl)methanesulfonamide] | > 10 | > 10 | 20.1 | 0
Cn1cc(-c2ccc3[nH]nc(-c4nc5c(-c6cccs6)cncc5[nH]4)c3n2)cn1 [Compound 656, 5-(1-Methyl-1H-pyrazol-4-yl)-3-(7-(thiophen-2-yl)-3H-imidazo[4,5-c]pyridin-2-yl)-1H-pyrazolo[4,3-b]pyridine] | > 10 | > 10 | 3 | 1.3
c1ccc(COc2cncc(-c3ccc4[nH]nc(-c5nc6c(-c7ccncc7)cncc6[nH]5)c4n3)c2)cc1 [Compound 554, 5-(5-(Benzyloxy)pyridin-3-yl)-3-(7-(pyridin-4-yl)-3H-imidazo[4,5-c]pyridin-2-yl)-1H-pyrazolo[4,3-b]pyridine] | > 10 | > 10 | 0 | 0
Oc1cncc(-c2ccc3[nH]nc(-c4nc5c(-c6cccnc6)cncc5[nH]4)c3n2)c1 [Compound 537, 5-(3-(7-(Pyridin-3-yl)-3H-imidazo[4,5-c]pyridin-2-yl)-1H-pyrazolo[4,3-b]pyridin-5-yl)pyridin-3-ol] | > 10 | > 10 | 9.9 | 7.6

Continued, in another order:

EC50 [1] [µM] | EC50 [2] [µM] | SMILES | inhibition at 10 µM [1] [%] | inhibition at 10 µM [2] [%]
> 10 | > 10 | Cn1cc(-c2ccc3[nH]nc(-c4nc5c(N6CCCCC6)cncc5[nH]4)c3n2)c(CO)n1 [Compound 1089, (1-Methyl-4-(3-(7-(piperidin-1-yl)-3H-imidazo[4,5-c]pyridin-2-yl)-1H-pyrazolo[4,3-b]pyridin-5-yl)-1H-pyrazol-3-yl)methanol] | 24.2 | 15.5
> 10 | > 10 | c1cc2c(cc1-c1cncc3[nH]c(-c4n[nH]c5ccc(C6CCNCC6)nc45)nc13)OCO2 [Compound 1063, 3-(7-(Benzo[d][1,3]dioxol-5-yl)-3H-imidazo[4,5-c]pyridin-2-yl)-5-(piperidin-4-yl)-1H-pyrazolo[4,3-b]pyridine] | 10.5 | 4.8
> 10 | > 10 | NC1CN(c2cncc(-c3ccc4[nH]nc(-c5nc6c(-c7ccc(Cl)s7)cncc6[nH]5)c4n3)n2)C1 [Compound 1023, 1-(6-(3-(7-(5-Chlorothiophen-2-yl)-3H-imidazo[4,5-c]pyridin-2-yl)-1H-pyrazolo[4,3-b]pyridin-5-yl)pyrazin-2-yl)azetidin-3-amine] | 24.3 | 7.4
> 10 | > 10 | COc1cccc(-c2cncc3[nH]c(-c4n[nH]c5ccc(-c6cncc(NC(=O)Cc7ccccc7)c6)nc45)nc23)c1 [Compound 955, N-(5-(3-(7-(3-methoxylphenyl)-3H-imidazo[4,5-c]pyridin-2-yl)-1H-pyrazolo[4,3-b]pyridin-5-yl)pyridin-3-yl)-2-phenylacetamide] | 21.5 | 2.7
> 10 | > 10 | COc1cccc(-c2cncc3[nH]c(-c4n[nH]c5ccc(-c6cncc(OC7CCNCC7)c6)nc45)nc23)c1 [Compound 980, 3-(7-(3-Methoxylphenyl)-3H-imidazo[4,5-c]pyridin-2-yl)-5-(5-(piperidin-4-yloxy)pyridin-3-yl)-1H-pyrazolo[4,3-b]pyridine] | 25.8 | 19.6
> 10 | > 10 | Cn1cc(-c2ccc3[nH]nc(-c4nc5c(-c6ccc7c(c6)OCO7)cncc5[nH]4)c3n2)c(CO)n1 [Compound 1106, (4-(3-(7-(Benzo[d][1,3]dioxol-5-yl)-3H-imidazo[4,5-c]pyridin-2-yl)-1H-pyrazolo[4,3-b]pyridin-5-yl)-1-methyl-1H-pyrazol-3-yl)methanol] | 24.7 | 3.1
> 10 | > 10 | CS(=O)(=O)NCc1cc(F)cc(-c2cncc3[nH]c(-c4n[nH]c5ccc(-c6cncc(NC(=O)CC7CCNCC7)c6)nc45)nc23)c1 [Compound 725, N-(5-(3-(7-(3-Fluoro-5-(methylsulfonamidomethyl)phenyl)-3H-imidazo[4,5-c]pyridin-2-yl)-1H-pyrazolo[4,3-b]pyridin-5-yl)pyridin-3-yl)-2-(piperidin-4-yl)acetamide] | 11.2 | 14.6
> 10 | > 10 | CN(C)CCNc1cc(F)cc(-c2cncc3[nH]c(-c4n[nH]c5ccc(-c6cncc(OCCN7CCCC7)c6)nc45)nc23)c1 [Compound 742, N^1-(3-Fluoro-5-(2-(5-(5-(2-(pyrrolidin-1-yl)ethoxy)pyridin-3-yl)-1H-pyrazolo[4,3-b]pyridin-3-yl)-3H-imidazo[4,5-c]pyridin-7-yl)phenyl)-N^2,N^2-dimethylethane-1,2-diamine] | 17.1 | 8.2
